Data: patent US20020026059A1 (priority 1995, published 2002)

tested on: Plasmopara viticola; experiment: Plasmopara test (vines)/protective; format: in vivo; conditions: Plasmopara viticola, 144 h, protective spray, active compound concentration of 100 ppm, evaluation 6 days after inoculation, read-out: Efficacy in %, based on the untreated control
Method: Plasmopara test (vines)/protective
Solvent: 4.7 parts by weight of acetone Emulsifier: 0.3 parts by weight of alkyl-aryl polyglycol ether
(§1) To produce a suitable preparation of active compound, 1 part by weight of active compound is mixed with the stated amounts of solvent and emulsifier, and the concentrate is diluted with water to the desired concentration.
To test for protective activity, young plants are sprayed with the preparation of active compound to run-off point. After the spray coating has dried on, the plants are inoculated with an aqueous suspension of spores of Plasmopara viticola and then remain in a humidity chamber at 20-22° C. and 100% relative atmospheric humidity for 1 day. The plants are subsequently placed in a greenhouse at 21° C. and 90% atmospheric humidity for […]. The plants are then moistened and placed in a humidity chamber for 1 day.
Evaluation is carried out 6 days after the inoculation. 0% means an efficacy corresponding to that of the control, whereas an efficacy of 100% means that no infestation is observed.

SMILES	pest or weed control at 100 ppm
Cc1noc(C)c1OS(=O)N1C(C#N)=NC2C=C3OC(F)(F)OC3=CC21 (stereo not drawn)	100%
N#Cc1nc2cc3c(cc2n1S(=O)Oc1cccs1)OC(F)(F)C(F)(F)O3 (stereo not drawn)	80%
COC(=O)c1sccc1OS(=O)n1c(C#N)nc2cc3c(cc21)OC(F)(F)C(F)(F)O3 (stereo not drawn)	100%
Cc1noc(C)c1OS(=O)n1c(C#N)nc2cc3c(cc21)OC(F)(F)C(F)(F)O3 (stereo not drawn) [drawing 367]	100%
Cc1oncc1OS(=O)n1c(C#N)nc2cc3c(cc21)OC(F)(F)C(F)(F)O3 (stereo not drawn) [drawing 370]	100%
Cc1nn(C)c(Cl)c1S(=O)(=O)n1c(C#N)nc2cc3c(cc21)OC(F)(F)C(F)(F)O3 [drawing 371]	74%
Cc1oncc1OS(=O)n1c(C#N)nc2cc3c(cc21)OC(F)(F)O3 (stereo not drawn) [drawing 372]	100%
Cc1noc(C)c1S(=O)(=O)n1c(C#N)nc2c(Br)cc(C(F)(F)F)cc21 [drawing 373]	95%

same assay, conditions: protective spray, active compound concentration of 100 ppm, evaluation 6 days after inoculation

SMILES	Efficacy in %, based on the untreated control
Cc1noc(C)c1OS(=O)n1c(C#N)nc2cc3c(cc21)OC(F)(F)C(F)(F)O3 (stereo not drawn) [drawing 374]	100%

tested on: Venturia inaequalis; experiment: Venturia test (apple)/protective; format: in vivo; conditions: apple plants, protective spray, active compound concentration of 10 ppm, evaluation 12 days after inoculation
Method: Venturia test (apple)/protective
Solvent: 4.7 parts by weight of acetone Emulsifier: 0.3 parts by weight of alkylaryl polyglycol ether
as §1
To test for protective activity, young plants are sprayed with the preparation of active compound to run-off point. After the spray coating has dried on, the plants are inoculated with an aqueous suspension of conidia of the causative organism of apple scab (Venturia inaequalis) and then remain in an incubation cupboard at 20° C. and 100% relative atmospheric humidity for 1 day.
The plants are then placed in a greenhouse at 20° C. and a relative atmospheric humidity of about 70%.
Evaluation is carried out 12 days after the inoculation. 0% means an efficacy corresponding to that of the control, 100% means that no infestation is observed.

SMILES	Efficacy in %, based on the untreated control
CN(C)OS(=O)n1c(C#N)nc2cc3c(cc21)OC(F)(F)C(F)(F)O3 (stereo not drawn)	43%
CN(C)S(=O)(=O)n1c(C#N)nc2cc3c(cc21)OC(F)(F)C(F)(F)O3 [comparison substance (A), 2-Cyano-1-dimethylaminosulphonyl-6,6,7,7-tetrafluoro-[1,4]dioxino[2,3-f]benzimidazole]	43%
CN(C)OS(=O)n1c(C#N)nc2cc3c(cc21)OC(F)(F)O3 (stereo not drawn) [drawing 350]	0%
Cc1noc(C)c1S(=O)(=O)n1c(C#N)nc2cc3c(cc21)OC(F)(F)O3 [drawing 351]	81%
Cc1noc(C)c1S(=O)(=O)n1c(C#N)nc2cc3c(cc21)OC(F)(F)C(F)(F)O3 [drawing 352]	58%
N#Cc1nc2cc3c(cc2n1S(=O)(=O)c1cccs1)OC(F)(F)C(F)(F)O3 [drawing 353]	87%

tested on: Phytophthora infestans; experiment: whole plant or invertebrate; format: in vivo; conditions: in Solanum lycopersicum, 72 h, read-out: Efficacy in %, based on the untreated control

SMILES	pest or weed control at 100 ppm
COC(=O)c1sccc1S(=O)(=O)n1c(C#N)nc2cc3c(cc21)OC(F)(F)C(F)(F)O3	82%
Cc1nn(C)c(Cl)c1S(=O)(=O)n1c(C#N)nc2cc3c(cc21)OC(F)(F)O3	94%
N#Cc1nc2cc3c(cc2n1S(=O)Oc1cccs1)OC(F)(F)O3 (stereo not drawn)	94%
COC(=O)c1csc(OS(=O)n2c(C#N)nc3cc4c(cc32)OC(F)(F)O4)c1C (stereo not drawn)	97%
Cc1noc(C)c1S(=O)(=O)n1c(C#N)nc2cc3c(cc21)OC(F)(F)O3 [drawing 354]	100%
Cc1noc(C)c1S(=O)(=O)n1c(C#N)nc2cc3c(cc21)OC(F)(F)C(F)(F)O3 [drawing 355]	97%
N#Cc1nc2cc3c(cc2n1S(=O)(=O)c1cccs1)OC(F)(F)C(F)(F)O3 [drawing 356]	94%
Cc1oncc1OS(=O)n1c(C#N)nc2cc3c(cc21)OC(F)(F)C(F)(F)O3 (stereo not drawn) [drawing 358]	64%
Cc1nn(C)c(Cl)c1S(=O)(=O)n1c(C#N)nc2cc3c(cc21)OC(F)(F)C(F)(F)O3 [drawing 359]	94%
Cc1oncc1OS(=O)n1c(C#N)nc2cc3c(cc21)OC(F)(F)O3 (stereo not drawn) [drawing 362]	96%
Cc1noc(C)c1S(=O)(=O)n1c(C#N)nc2c(Br)cc(C(F)(F)F)cc21 [drawing 363]	74%
Cc1noc(C)c1OS(=O)n1c(C#N)nc2cc3c(cc21)OC(F)(F)C(F)(F)O3 (stereo not drawn) [drawing 365]	97%
